Data taken from patent US5371186A, “Synthetic peptides for detoxification of bacterial endotoxins and for the prevention and treatment of septic shock” (priority 1992, dated 1994).

What was measured:
[1] = Limulus (LAL) test, inhibition of LPS-induced gelation; assay type: biochemical, B. Pertussis; settings: LPS/Pept (w/w) 1; LPS 0.1 μg
Source text: (§1) As a consequence of this high-affinity binding to the Lipid A moiety of endotoxins, most of the synthetic peptide analogs have shown the ability to detoxify endotoxins as evidenced by in vitro as well as in vivo analysis. The in vitro test used, as measure of detoxification, the inhibition of the enzymatic cascade leading to the coagulation of the Lymulus lysate (LAL test) by endotoxin. The LAL test is recognized as the most sensitive and predictive test for the toxic and pyrogenic activity of LPS, since pyrogenicity in vivo is related to the release of the endogenous immune modulators Interleukin-1 (IL-l) and alfa-Tumor necrosis factor (α-TNF), the mediators responsible for the fatalities associated to septic shock. As an in vivo test confirming detoxification of LPS, was then used the Rabbit pyrogen test performed according to the United States Pharmacopeia XXI.
The results obtained by the Limulus (LAL) test, shown in Table V, support the data obtained by measuring the Affinity of the peptides of the invention for the Lipid A moiety of LPS in that they were substantially equivalent to Polymyxin "B" in the inhibition of LPS activity on Limulus. […] Peptide I was, in fact, the one presenting the non complete structure needed for the mimick of Polymyxin "B" as the synthetic peptide analogs II, IV, VI and VII have clearly shown in the previous Table IV. […]

Haemophilus influenzae = assay: antibiotic activity, zone of inhibition on BHI plates; assay type: cell-based, H. influenzas; settings: 18 hours
Method: (§2) The following experiments compared the antibiotic activity of Polymyxin "B" with various peptides of the invention.
(§3) The tests were performed on BHI plates with liquid cultures of the test organism to give a lawn. Each peptide was diluted in water and placed on sterile Wathmam 3M disks on the surface of the plate. The plates were dried and incubated at 37° C. The zone of inhibition was measured after 18 hours: […]

[2] = Rabbit pyrogen test of peptide/LPS complexes; assay type: in vivo; settings: rabbits, complex with LPS injected, three hours observation
Source text: as §1
In order to verify "in vivo" the detoxifying activity of the peptides, we have injected five groups of three rabbits each with the complexes formed by two representative synthetic peptide analogs with LPS. The pyrogenicity test has been executed according to the United States Pharmacopeia (Vol. XXI)/The National formulary (Vol. XVI), Combined Edition, Jan. 1, 1985. As a negative control in the test, the complex formed by Polymyxin "B" and LPS was injected. As a positive control free LPS was injected. […]

[3] = same species of mice (Swiss Webster); cited from earlier work
Salmonella Typhi = assay: antibiotic activity, zone of inhibition on BHI plates; assay type: cell-based, S. typhi; settings: 18 hours
Method: as §2, §3

Polymyxin "B"
LAL TEST [1]: NEGATIVE | Zone (mm) of inhibition H. influenzas (Haemophilus influenzae; 0.008 μg/ml): 0 mm | Zone (mm) of inhibition H. influenzas (Haemophilus influenzae; 0.04 μg/ml): 0 mm | Zone (mm) of inhibition H. influenzas (Haemophilus influenzae; 0.2 μg/ml): 3 mm | Zone (mm) of inhibition H. influenzas (Haemophilus influenzae; 1.0 μg/ml): 6 mm | pyrogenicity (temperature increase) of complex with LPS [2]: did not show either of the two waves of temperature increase | LD50 [3]: 2.5 to 5 mg/kg | Zone (mm) of inhibition S. typhi (Salmonella Typhi; 0.008 μg/ml): 0 mm | Zone (mm) of inhibition S. typhi (Salmonella Typhi; 0.04 μg/ml): 1 mm | Zone (mm) of inhibition S. typhi (Salmonella Typhi; 0.2 μg/ml): 2 mm | Zone (mm) of inhibition S. typhi (Salmonella Typhi; 1.0 μg/ml): 4 mm
